Entries after “also recorded” stand apart in the source; their conditions may differ.
Tests used:
[1] = test system: effect of acetylcholine on heart rate; assay: Inhibition of the effect of acetylcholine on the heart rate (ECG), anaesthetised guinea-pigs; type: in vivo; conditions: Cavia porcellus, iv, 5 min, anaesthetised guinea-pig, 10 μg/kg acetylcholine i.v. and intraarterially 5 minutes after test substance, read-out: -log DE50 Heart (converted)
Protocol: (§1) 5 minutes after administration of the test substance to anaesthetised guinea-pigs, 10 μg/kg of acetylcholine was injected intravenously and, at the same time, intraarterially. At the same time, the heart rate was recorded by extracorporeal derivation of the ECG, the respiratory passage resistance by Konzett-Rossler and the contraction of the exposed bladder directly. For the inhibition of the effect of acetylcholine on the organs examined, dosage-activity curves were recorded and -log ED50 values were determined therefrom.

[2] = test system: effect of acetylcholine on bronchi; assay: Inhibition of the effect of acetylcholine on the bronchi (respiratory passage resistance, Konzett-Rossler), anaesthetised guinea-pigs; type: in vivo, guinea-pig; conditions: for ED50: Cavia porcellus, iv, 5 min, read-out: -log DE50 Bronchi; for selectivity of inhibition of acetylcholine-induced bronchoconstriction versus effects on heart and bladder (in words): bronchi compared to heart and bladder, guinea-pig
Protocol: as §1

[3] = target: T1, muscarinic receptors, heart (M2) (Rattus norvegicus, UniProt P10980); assay: Receptor binding test in vitro, 3H-N-methylscopolamine, heart (M2); design: species or system Sprague-Dawley rat
T1 construct: After removing the heart, submandible and cerebral cortex; from tissue; host or cells: Sprague-Dawley rat entire heart homogenate
T1 sequence (P10980 1-466): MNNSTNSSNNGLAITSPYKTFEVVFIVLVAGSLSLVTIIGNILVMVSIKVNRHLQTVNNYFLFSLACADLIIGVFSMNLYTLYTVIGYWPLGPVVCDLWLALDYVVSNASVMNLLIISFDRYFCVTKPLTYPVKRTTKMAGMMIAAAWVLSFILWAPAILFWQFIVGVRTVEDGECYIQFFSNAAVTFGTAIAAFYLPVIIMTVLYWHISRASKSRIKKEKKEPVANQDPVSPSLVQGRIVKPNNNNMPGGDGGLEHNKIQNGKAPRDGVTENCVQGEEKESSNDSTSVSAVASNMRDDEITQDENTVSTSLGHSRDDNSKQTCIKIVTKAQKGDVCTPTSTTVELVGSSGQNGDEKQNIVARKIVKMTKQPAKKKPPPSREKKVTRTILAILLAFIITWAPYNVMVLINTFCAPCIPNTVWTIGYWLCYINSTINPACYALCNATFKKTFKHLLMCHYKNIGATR
Protocol: (§2) Sprague-Dawley rats having body weights of 180-220 g were used as organ donors. After removing the heart, submandible and cerebral cortex, all further steps were carried out in ice-cold Hepes-HCl buffer (pH 7.4; 100 m molar NaCl, 10 m molar MgCl2). The entire heart was comminuted using a pair of scissors. All organs were then homogenised in a Potter.
(§3) For the binding test, the organ homogenates were diluted in the following manner(ratio by volume):
(§4) The incubation of the organ homogenates was carried out at a defined concentration of the radioligand and a number of concentrations of the non-radioactive test substances in Eppendorf centrifuge tubes at 30° C. The incubation period was 45 minutes. 0.3 nanomolar ^3 H-N-methylscopolamine (^3 H-NMS, heart and submandible) or 1 nanomolar ^3 H-pirenzepine (^3 H-PZ, cerebrum) were used as the radioligand. The incubation was ended by addition of ice-cold buffer with subsequent vacuum filtration. The filter was washed with cold buffer and its radioactivity was determined. This represents the total of specific and non-specific binding of ^3 H-NMS or ^3 H-PZ. The proportion of non-specific binding was defined as that radioactivity which was bound in the presence of 1μ molar quinuclidinylbenzylate. Four-fold determinations were always carried out. The IC50 values of non-labelled test substances were determined graphically. They represent that concentration of the test substance at which the specific binding of ^3 H-NMS or ^3 H-PZ to the muscarinic receptors in the various organs was inhibited by 50%.

[4] = target: T2, muscarinic receptors, cortex (M1) (Rattus norvegicus, UniProt P08482); assay: Receptor binding test in vitro, 3H-pirenzepine, cerebral cortex (M1); design: species or system Sprague-Dawley rat; conditions: for IC50: 1 nanomolar 3H-pirenzepine, rat cerebral cortex homogenate, 30° C., 45 minutes, pH 7.4, read-out: IC50 3H-PZ Cortex (M1); for M1-selectivity in receptor binding studies (in words): cortex M1 compared to heart and submandible
T2 construct: After removing the heart, submandible and cerebral cortex; from tissue; host or cells: Sprague-Dawley rat cerebral cortex homogenate
T2 sequence (P08482 1-460): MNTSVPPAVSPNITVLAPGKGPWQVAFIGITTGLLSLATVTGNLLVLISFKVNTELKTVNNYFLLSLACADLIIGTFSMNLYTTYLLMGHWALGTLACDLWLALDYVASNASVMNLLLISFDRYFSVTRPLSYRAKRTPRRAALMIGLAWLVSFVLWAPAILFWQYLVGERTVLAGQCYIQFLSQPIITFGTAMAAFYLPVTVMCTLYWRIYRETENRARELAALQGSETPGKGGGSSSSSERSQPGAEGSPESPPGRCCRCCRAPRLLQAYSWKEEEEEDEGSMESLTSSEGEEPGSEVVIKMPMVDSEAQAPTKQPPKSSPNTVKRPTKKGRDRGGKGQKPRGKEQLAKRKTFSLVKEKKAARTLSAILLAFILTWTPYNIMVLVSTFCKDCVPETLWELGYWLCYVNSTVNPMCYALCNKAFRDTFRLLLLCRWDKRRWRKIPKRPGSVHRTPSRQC
Protocol: as §2, §3, §4

[5] = test system: effect of acetylcholine on bladder; assay: Inhibition of the effect of acetylcholine on the bladder (contraction of the exposed bladder), anaesthetised guinea-pigs; type: in vivo; conditions: Cavia porcellus, iv, 5 min; anaesthetised guinea-pig; 10 μg/kg acetylcholine i.v. and intraarterially 5 minutes after test substance; read-out: -log DE50 Bladder (converted)
Protocol: as §1

[6] = target: T3, muscarinic receptors, submandible (M3) (Rattus norvegicus, UniProt P08483); assay: Receptor binding test in vitro, 3H-N-methylscopolamine, submandible (M3); design: species or system Sprague-Dawley rat; conditions: 0.3 nanomolar 3H-N-methylscopolamine, rat submandible homogenate, 30° C., 45 minutes, pH 7.4; read-out: IC50 3H-NMS Submandible (M3)
T3 construct: After removing the heart, submandible and cerebral cortex; from tissue; host or cells: Sprague-Dawley rat submandibular gland ('submandible') homogenate
Protocol: as §2, §3, §4

T3 sequence (P08483 whole entry): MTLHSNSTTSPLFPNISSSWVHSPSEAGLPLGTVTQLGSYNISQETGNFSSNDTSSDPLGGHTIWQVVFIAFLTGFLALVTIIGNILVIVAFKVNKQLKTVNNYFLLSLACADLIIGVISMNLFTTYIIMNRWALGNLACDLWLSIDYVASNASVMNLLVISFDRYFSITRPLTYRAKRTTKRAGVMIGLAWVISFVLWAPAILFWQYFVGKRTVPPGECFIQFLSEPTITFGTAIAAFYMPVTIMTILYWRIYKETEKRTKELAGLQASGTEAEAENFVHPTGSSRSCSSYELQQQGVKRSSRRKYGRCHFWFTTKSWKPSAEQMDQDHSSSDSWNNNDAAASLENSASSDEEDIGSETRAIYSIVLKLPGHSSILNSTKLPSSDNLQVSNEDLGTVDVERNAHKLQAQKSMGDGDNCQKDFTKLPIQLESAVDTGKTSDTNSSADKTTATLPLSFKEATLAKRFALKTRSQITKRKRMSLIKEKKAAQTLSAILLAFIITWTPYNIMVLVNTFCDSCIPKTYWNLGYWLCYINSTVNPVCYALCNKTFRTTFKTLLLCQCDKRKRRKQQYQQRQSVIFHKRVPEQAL

Row | SMILES | ED50 [1] [µmol/kg] | ED50 [2] [µmol/kg] | selectivity of inhibition of acetylcholine-induced bronchoconstriction versus effects on heart and bladder (in words) [2] | IC50 [3] [µM] | IC50 [4] [µM] | M1-selectivity in receptor binding studies (in words) [4] | ED50 [5] [µmol/kg] | IC50 [6] [µM]
1 | CN1CCC(CC(=O)C2c3ccccc3NC(=O)c3ccccc32)CC1 (racemic) [Substance B, 5,11-dihydro-11-[(1-methyl-4-piperidinyl)acetyl]-6H-dibenz[b,e]azepin-6-one] | 0.851 | 0.182 | marked selectivity for the inhibition of the bronchoconstriction; also recorded: even at dosages at which no effects on the heart and bladder are observed; also recorded: more strongly inhibit the cholinergically induced bronchoconstriction in functional tests than frequency effects on the heart or the bladder contraction | 0.042 | 0.0025 | marked M1 -selectivity; also recorded: lower IC50 values for the cortex M1 receptor compared to muscarinic receptors in preparations of the heart and submandible; also recorded: M1 -selectivity in in vitro receptor binding studies | 0.813 | 0.013
2 | CN1CCN(CC(=O)C2c3ccccc3NC(=O)c3ccccc32)CC1 (racemic) [Substance C, 5,11-dihydro-11-[(4-methyl-1-piperazinyl)acetyl]-6H-dibenz[b,e]azepin-6-one] | 1.78 | 0.275 | marked selectivity for the inhibition of the bronchoconstriction; also recorded: even at dosages at which no effects on the heart and bladder are observed; also recorded: more strongly inhibit the cholinergically induced bronchoconstriction in functional tests than frequency effects on the heart or the bladder contraction | 0.8 | 0.008 | marked M1 -selectivity; also recorded: lower IC50 values for the cortex M1 receptor compared to muscarinic receptors in preparations of the heart and submandible; also recorded: M1 -selectivity in in vitro receptor binding studies | 5.37 | 0.1
3 | CN1CCC(NC(=O)C2c3ccccc3NC(=O)c3ccccc32)CC1 (racemic) [Substance A, 5,11-dihydro-11-[[(1-methyl-4-piperidinyl)amino]carbonyl]-6H-dibenz[b,e]azepin-6-one] | 0.955 | 0.055 | marked selectivity for the inhibition of the bronchoconstriction; also recorded: even at dosages at which no effects on the heart and bladder are observed; also recorded: more strongly inhibit the cholinergically induced bronchoconstriction in functional tests than frequency effects on the heart or the bladder contraction | 0.4 | 0.006 | marked M1 -selectivity; also recorded: lower IC50 values for the cortex M1 receptor compared to muscarinic receptors in preparations of the heart and submandible; also recorded: M1 -selectivity in in vitro receptor binding studies | 0.537 | 0.07
4 | CN1CCC(NC(=O)C2c3ccccc3NC(=O)c3ccccc32)CC1 (single isomer, unassigned; (+)) [Substance D, (+)-5,11-dihydro-11-[[(1-methyl-4-piperidinyl)amino]carbonyl]-6H-dibenz[b,e]azepin-6-one] | 0.407 | 0.0331 | even at dosages at which no effects on the heart and bladder are observed; also recorded: more strongly inhibit the cholinergically induced bronchoconstriction in functional tests than frequency effects on the heart or the bladder contraction | 0.3 | 0.003 | marked M1 -selectivity; also recorded: lower IC50 values for the cortex M1 receptor compared to muscarinic receptors in preparations of the heart and submandible; also recorded: M1 -selectivity in in vitro receptor binding studies | 0.309 | 0.05

Source: patent US5011836A, “Agents for the treatment of acute and chronic obstructive respiratory passage diseases” (Dr. Karl Thomae GmbH, priority 1988, dated 1991)
